Reference: patent US10633382B2, “Imidazopyrazinones, pyrazolopyrimidinones and pyrazolopyridinones as PDE1 inhibitors” (H. Lundbeck A/S, priority 2016, dated 2020)

Key:
Type in all cases: biochemical
[1] = target: PDE1C (Homo sapiens, UniProt Q14123); assay: PDE1 inhibition assay (PDE1C); conditions: 15 nM tritium labelled cAMP, SPA
Procedure: (§1) PDE1A, PDE1B and PDE1C assays were performed as follows: the assays were performed in 60 μL samples containing a fixed amount of the PDE1 enzyme (sufficient to convert 20-25% of the cyclic nucleotide substrate), a buffer (50 mM HEPES (4-(2-hydroxyethyl)-1-piperazineethanesulfonic acid) pH 7.6; 10 mM MgCl2; 0.02% Tween20), 0.1 mg/ml BSA (bovine serum albumin), 15 nM tritium labelled cAMP and varying amounts of inhibitors. Reactions were initiated by addition of the cyclic nucleotide substrate, and reactions were allowed to proceed for 1 hr at room temperature before being terminated through mixing with 20 μL (0.2 mg) yttrium silicate SPA beads (PerkinElmer). The beads were allowed to settle for 1 hour in the dark before the plates were counted in a Wallac 1450 Microbeta counter. The measured signals were converted to activity relative to an uninhibited control (100%) and IC50 values were calculated using XlFit (model 205, IDBS).

[2] = target: PDE1A (Homo sapiens, UniProt P54750); assay: PDE1 inhibition assay (PDE1A); conditions: 15 nM tritium labelled cAMP, SPA
Sequence of PDE1A (P54750 whole entry): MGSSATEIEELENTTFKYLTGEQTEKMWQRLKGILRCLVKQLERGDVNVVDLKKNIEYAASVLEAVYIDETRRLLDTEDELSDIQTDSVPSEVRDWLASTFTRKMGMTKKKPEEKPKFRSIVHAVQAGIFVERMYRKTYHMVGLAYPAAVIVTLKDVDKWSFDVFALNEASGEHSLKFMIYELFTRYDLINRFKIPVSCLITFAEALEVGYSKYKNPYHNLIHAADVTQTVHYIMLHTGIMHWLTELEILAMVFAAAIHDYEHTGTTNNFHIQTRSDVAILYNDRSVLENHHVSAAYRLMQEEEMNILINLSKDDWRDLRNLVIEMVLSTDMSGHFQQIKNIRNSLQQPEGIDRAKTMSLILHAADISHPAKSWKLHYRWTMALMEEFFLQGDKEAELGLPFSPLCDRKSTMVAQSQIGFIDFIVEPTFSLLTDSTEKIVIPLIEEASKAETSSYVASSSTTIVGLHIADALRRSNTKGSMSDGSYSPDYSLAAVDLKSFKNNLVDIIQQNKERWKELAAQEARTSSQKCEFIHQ
Procedure: as §1

[3] = target: PDE9 (Homo sapiens, UniProt O76083); assay: PDE9 inhibition assay; conditions: 10 μM of inhibitor
Sequence of PDE9 (O76083 whole entry): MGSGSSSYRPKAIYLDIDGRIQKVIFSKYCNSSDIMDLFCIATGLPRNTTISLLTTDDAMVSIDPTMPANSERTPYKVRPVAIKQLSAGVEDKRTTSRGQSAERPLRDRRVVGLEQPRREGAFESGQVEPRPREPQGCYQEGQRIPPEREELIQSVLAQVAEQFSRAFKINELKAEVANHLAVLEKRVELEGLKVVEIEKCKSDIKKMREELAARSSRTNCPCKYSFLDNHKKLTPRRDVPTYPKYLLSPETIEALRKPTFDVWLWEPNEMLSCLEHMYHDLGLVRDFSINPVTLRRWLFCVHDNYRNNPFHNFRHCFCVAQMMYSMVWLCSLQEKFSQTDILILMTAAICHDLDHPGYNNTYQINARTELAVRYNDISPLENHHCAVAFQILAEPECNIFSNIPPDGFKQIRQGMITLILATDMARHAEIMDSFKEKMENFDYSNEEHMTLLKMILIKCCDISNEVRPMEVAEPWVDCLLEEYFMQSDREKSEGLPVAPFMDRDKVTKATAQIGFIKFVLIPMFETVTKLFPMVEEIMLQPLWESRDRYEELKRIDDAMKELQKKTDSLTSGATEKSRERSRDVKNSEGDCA
Procedure: A PDE9 assay may for example, be performed as follows: The assay is performed in 60 μL samples containing a fixed amount of the relevant PDE enzyme (sufficient to convert 20-25% of the cyclic nucleotide substrate), a buffer (50 mM HEPES pH 7.6; 10 mM MgCl2; 0.02% Tween20), 0.1 mg/ml BSA, 225 pCi of ^3H-labelled cyclic nucleotide substrate, tritium labeled cAMP to a final concentration of 5 nM and varying amounts of inhibitors. Reactions are initiated by addition of the cyclic nucleotide substrate, and reactions are allowed to proceed for one hr at room temperature before being terminated through mixing with 15 μL 8 mg/mL yttrium silicate SPA beads (Amersham). The beads are allowed to settle for one hr in the dark before the plates are counted in a Wallac 1450 Microbeta counter. The measured signal can be converted to activity relative to an uninhibited control (100%) and IC50 values can be calculated using the Xlfit extension to EXCEL.
In the context of the present invention the assay was performed in 60 μL assay buffer (50 mM HEPES pH 7.6; 10 mM MgCl2; 0.02% Tween20) containing enough PDE9 to convert 20-25% of 10 nM ^3H-cAMP, and […] 10 μM of inhibitor. Following 1 hr incubation the reactions were terminated by addition of 15 μL 8 mg/mL yttrium silicate SPA beads (Amersham). The beads were allowed to settle for one hr in the dark before the plates were counted in a Wallac 1450 Microbeta counter.

[4] = target: PDE1B (Homo sapiens, UniProt Q01064); assay: PDE1 inhibition assay (PDE1B); conditions: 15 nM tritium labelled cAMP, SPA
Sequence of PDE1B (Q01064 whole entry): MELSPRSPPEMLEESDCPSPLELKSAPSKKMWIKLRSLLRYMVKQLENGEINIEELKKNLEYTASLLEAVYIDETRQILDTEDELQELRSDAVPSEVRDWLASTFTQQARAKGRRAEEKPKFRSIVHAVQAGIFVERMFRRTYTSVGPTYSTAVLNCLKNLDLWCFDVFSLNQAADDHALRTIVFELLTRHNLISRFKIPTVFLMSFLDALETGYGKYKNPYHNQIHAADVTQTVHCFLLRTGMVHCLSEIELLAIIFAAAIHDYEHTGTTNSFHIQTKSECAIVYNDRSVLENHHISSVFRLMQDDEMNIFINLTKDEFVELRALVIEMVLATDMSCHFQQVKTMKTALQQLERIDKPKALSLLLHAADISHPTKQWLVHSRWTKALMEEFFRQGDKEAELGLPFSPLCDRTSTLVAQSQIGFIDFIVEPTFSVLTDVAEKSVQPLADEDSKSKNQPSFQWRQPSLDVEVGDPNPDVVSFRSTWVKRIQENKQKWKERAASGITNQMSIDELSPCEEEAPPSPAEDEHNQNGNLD
Procedure: as §1

Sequence of PDE1C (Q14123 whole entry): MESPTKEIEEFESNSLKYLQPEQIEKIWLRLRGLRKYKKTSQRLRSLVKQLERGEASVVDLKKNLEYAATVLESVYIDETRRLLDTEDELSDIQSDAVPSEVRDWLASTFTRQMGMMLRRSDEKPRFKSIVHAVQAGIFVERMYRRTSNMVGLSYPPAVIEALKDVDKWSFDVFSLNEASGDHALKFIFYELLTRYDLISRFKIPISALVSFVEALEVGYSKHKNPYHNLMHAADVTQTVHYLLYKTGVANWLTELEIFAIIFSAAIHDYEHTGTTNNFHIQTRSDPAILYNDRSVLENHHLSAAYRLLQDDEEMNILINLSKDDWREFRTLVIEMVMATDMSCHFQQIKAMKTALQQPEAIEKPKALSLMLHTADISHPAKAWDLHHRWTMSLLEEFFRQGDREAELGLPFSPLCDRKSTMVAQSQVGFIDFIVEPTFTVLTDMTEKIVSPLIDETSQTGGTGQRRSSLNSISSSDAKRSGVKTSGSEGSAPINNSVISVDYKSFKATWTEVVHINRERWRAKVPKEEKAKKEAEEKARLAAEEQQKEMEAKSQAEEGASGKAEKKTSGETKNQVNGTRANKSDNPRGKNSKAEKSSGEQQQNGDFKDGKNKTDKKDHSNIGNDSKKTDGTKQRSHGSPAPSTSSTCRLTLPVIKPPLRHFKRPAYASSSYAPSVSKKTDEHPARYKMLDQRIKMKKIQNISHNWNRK

Structure (SMILES) | IC50 [1] [nM] | IC50 [2] [nM] | inhibition at 10 µM [3] [%] | IC50 [4] [nM] | PDE9 Inhibition at 10 μM (%) [3] [%]
Cn1c(Cc2ccc(-c3ccccc3)cc2)cn2c(C3CCOCC3)ncc2c1=O [Example 19, 7-methyl-6-[(4-phenylphenyl)methyl]-3-tetrahydropyran-4-yl-imidazo[1,5-a]pyrazin-8-one] | 61 | 28 | 7 | 7.3 | 
Cn1c(Cc2ccc(-c3cnccn3)cc2)cn2c(C3CCOCC3)ncc2c1=O [Example 24, 7-methyl-6-(4-(pyrazin-2-yl)benzyl)-3-(tetrahydro-2H-pyran-4-yl)imidazo[1,5-a]pyrazin-8(7H)-one] | 198 | 91 | -2 | 30 | 
COc1cccnc1-c1ccc(Cc2cn3c(C4CCOCC4)ncc3c(=O)n2C)cc1 [Example 17, 6-[[4-(3-methoxy-2-pyridyl)phenyl]methyl]-7-methyl-3-tetrahydropyran-4-yl-imidazo[1,5-a]pyrazin-8-one] | 161 | 87 | 2 | 21 | 
COc1ccc(Cn2c(CN3CCN(c4ccccc4)CC3)cn3c(C4CCOCC4)ncc3c2=O)cc1 [Example 8, 7-[(4-methoxyphenyl)methyl]-6-[(4-phenylpiperazin-1-yl)methyl]-3-tetrahydropyran-4-yl-imidazo[1,5-a]pyrazin-8-one] | 140 | 59 | 11 | 9.8 | 
Cc1cccc(-c2ccc(Cc3cc4c(cnn4C4CCOCC4)c(=O)n3C)cc2)n1 [Example 1, 5-methyl-6-[[4-(6-methyl-2-pyridyl)phenyl]methyl]-1-tetrahydropyran-4-yl-pyrazolo[4,3-c]pyridin-4-one] | 220 | 150 | 10 | 32 | 
COc1ccc(Cn2c(Cc3ccc(-c4ccccn4)cc3)cn3c(C4CCOCC4)ncc3c2=O)cc1 [Example 9, 7-[(4-methoxyphenyl)methyl]-6-[[4-(2-pyridyl)phenyl]methyl]-3-tetrahydropyran-4-yl-imidazo[1,5-a]pyrazin-8-one] | 0.38 | 0.29 | 39 | 0.19 | 
Cn1cnc(-c2ccc(Cc3cn4c(C5CCOCC5)ncc4c(=O)n3C)cc2)c1 [Example 20, 7-methyl-6-(4-(1-methyl-1H-imidazol-4-yl)benzyl)-3-(tetrahydro-2H-pyran-4-yl)imidazo[1,5-a]pyrazin-8(7H)-one] | 157 | 75 | -6 | 17 | 
Cn1c(Cc2ccc(-c3ccncn3)cc2)cn2c(C3CCOCC3)ncc2c1=O [Example 26, 7-methyl-6-(4-(pyrimidin-4-yl)benzyl)-3-(tetrahydro-2H-pyran-4-yl)imidazo[1,5-a]pyrazin-8(7H)-one] | 149 | 68 | 14 | 16 | 
Cn1c(Cc2ccc(-c3ccccn3)cc2)nc2c(cnn2C2CCOCC2)c1=O [Example 2, 5-methyl-6-[[4-(2-pyridyl)phenyl]methyl]-1-tetrahydropyran-4-yl-pyrazolo[3,4-d]pyrimidin-4-one] | 530 | 390 | 5 | 92 | 
Cn1c(Cc2ccc(-c3cccc(F)n3)cc2)nc2c(cnn2C2CCOCC2)c1=O [Example 4, 6-[[4-(6-fluoro-2-pyridyl)phenyl]methyl]-5-methyl-1-tetrahydropyran-4-yl-pyrazolo[3,4-d]pyrimidin-4-one] | 2100 | 180 | 17 | 57 | 
COc1ccc(Cn2c(CN3CCN(c4ccccn4)CC3)cn3c(C4CCOCC4)ncc3c2=O)cc1 [Example 7, 7-[(4-methoxyphenyl)methyl]-6-[[4-(2-pyridyl)piperazin-1-yl]methyl]-3-tetrahydropyran-4-yl-imidazo[1,5-a]pyrazin-8-one] | 190 | 88 | 19 | 13 | 
CCn1c(Cc2ccc(-c3ccccn3)cc2)cn2c(C3CCOCC3)ncc2c1=O [Example 12, 7-ethyl-6-[[4-(2-pyridyl)phenyl]methyl]-3-tetrahydropyran-4-yl-imidazo[1,5-a]pyrazin-8-one] | 26 | 12 | 4 | 3.1 | 

Continued, values first:

IC50 [1] [nM] | IC50 [2] [nM] | inhibition at 10 µM [3] [%] | IC50 [4] [nM] | PDE9 Inhibition at 10 μM (%) [3] [%] | Structure (SMILES)
9.2 | 5.8 |  | 1.3 | 5 | CC1OCCC1c1ncc2c(=O)n(C)c(Cc3ccc(-c4cccc(F)n4)cc3)cn12 (single isomer, unassigned; isomer 4) [Example 32, 6-(4-(6-fluoropyridin-2-yl)benzyl)-7-methyl-3-(2-methyltetrahydrofuran-3-yl)imidazo[1,5-a]pyrazin-8(7H)-one, Isomer 4]
45 | 18 |  | 4 | 10 | CC1OCCC1c1ncc2c(=O)n(C)c(Cc3ccc(-c4cccc(F)n4)cc3)cn12 (single isomer, unassigned; isomer 3) [Example 31, 6-(4-(6-fluoropyridin-2-yl)benzyl)-7-methyl-3-(2-methyltetrahydrofuran-3-yl)imidazo[1,5-a]pyrazin-8(7H)-one, Isomer 3]
80 | 81 | 18 | 14 |  | Cc1cccc(-c2ccc(Cc3cn4c(C5CCOCC5)ncc4c(=O)n3C)cc2)n1 [Example 13, 7-methyl-6-[[4-(6-methyl-2-pyridyl)phenyl]methyl]-3-tetrahydropyran-4-yl-imidazo[1,5-a]pyrazin-8-one]
190 | 120 | 3 | 20 |  | Cn1c(Cc2ccc(-c3cccc(F)n3)cc2)cc2c(cnn2C2CCOCC2)c1=O [Example 5, 6-[[4-(6-fluoro-2-pyridyl)phenyl]methyl]-5-methyl-1-tetrahydropyran-4-yl-pyrazolo[4,3-c]pyridin-4-one]
400 | 218 | 9 | 90 |  | Cn1c(Cc2ccc(-c3cccc(F)n3)cc2)cn2c(CC(F)(F)F)ncc2c1=O [Example 25, 6-(4-(6-fluoropyridin-2-yl)benzyl)-7-methyl-3-(2,2,2-trifluoroethyl)imidazo[1,5-a]pyrazin-8(7H)-one]
148 | 70 |  | 71 | −2 | CC1OCCC1c1ncc2c(=O)n(C)c(Cc3ccc(-c4cccc(F)n4)cc3)cn12 (single isomer, unassigned; isomer 2) [Example 30, 6-(4-(6-fluoropyridin-2-yl)benzyl)-7-methyl-3-(2-methyltetrahydrofuran-3-yl)imidazo[1,5-a]pyrazin-8(7H)-one, Isomer 2]
578 | 176 | 17 | 56 |  | CCc1ncc2c(=O)n(C)c(Cc3ccc(-c4cccc(F)n4)cc3)cn12 [Example 23, 3-ethyl-6-(4-(6-fluoropyridin-2-yl)benzyl)-7-methylimidazo[1,5-a]pyrazin-8(7H)-one]
310 | 168 | 2 | 40 |  | CCCc1ncc2c(=O)n(C)c(Cc3ccc(-c4cccc(F)n4)cc3)cn12 [Example 22, 6-(4-(6-fluoropyridin-2-yl)benzyl)-7-methyl-3-propylimidazo[1,5-a]pyrazin-8(7H)-one]
67 | 62 | 14 | 5.2 |  | Cn1c(Cc2ccc(-c3cccc(F)n3)cc2)cn2c(C3CCOCC3)ncc2c1=O [Example 14, 6-[[4-(6-fluoro-2-pyridyl)phenyl]methyl]-7-methyl-3-tetrahydropyran-4-yl-imidazo[1,5-a]pyrazin-8-one]
42 | 24 | 7 | 4.7 |  | COc1cccc(-c2ccc(Cc3cn4c(C5CCOCC5)ncc4c(=O)n3C)cc2)n1 [Example 16, 6-[[4-(6-methoxy-2-pyridyl)phenyl]methyl]-7-methyl-3-tetrahydropyran-4-yl-imidazo[1,5-a]pyrazin-8-one]
